Data published in ChEMBL document CHEMBL2073931, “Interaction between methotrexate and nonsteroidal anti-inflammatory drugs in organic anion transporter” (Eur J Pharmacol, 2000).

Biological target: T1, Solute carrier family 22 member 6 (Rattus norvegicus, UniProt O35956)
T1 sequence (O35956 whole entry): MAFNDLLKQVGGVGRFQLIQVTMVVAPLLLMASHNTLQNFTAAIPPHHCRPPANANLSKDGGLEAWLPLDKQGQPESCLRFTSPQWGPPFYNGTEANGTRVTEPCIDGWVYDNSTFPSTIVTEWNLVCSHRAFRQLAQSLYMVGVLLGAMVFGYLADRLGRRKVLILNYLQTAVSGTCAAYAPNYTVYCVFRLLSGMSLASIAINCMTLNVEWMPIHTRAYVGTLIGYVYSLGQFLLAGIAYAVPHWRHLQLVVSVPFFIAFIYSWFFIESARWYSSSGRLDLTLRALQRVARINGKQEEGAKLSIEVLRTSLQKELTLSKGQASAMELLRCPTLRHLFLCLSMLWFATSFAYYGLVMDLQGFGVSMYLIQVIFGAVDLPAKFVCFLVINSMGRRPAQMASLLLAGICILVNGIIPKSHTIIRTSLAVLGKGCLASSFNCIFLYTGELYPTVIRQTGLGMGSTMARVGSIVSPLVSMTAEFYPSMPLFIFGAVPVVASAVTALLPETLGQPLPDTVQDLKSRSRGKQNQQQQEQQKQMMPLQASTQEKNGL
Experiment: TP_TRANSPORTER: inhibition of MTX uptake in Xenopus laevis oocytes
Type: functional, cell-based, Oocyte
Conditions: for Activity: xenopus laevis, oocyte

Row | Compound | Activity | further results
1 | O=C(O)c1ccccc1Nc1cccc(C(F)(F)F)c1 [FLUFENAMIC ACID] | inhibitor [+] | 
2 | COc1ccc2c(c1)c(CC(=O)O)c(C)n2C(=O)c1ccc(Cl)cc1 [INDOMETHACIN] |  | Ki: 4.2 µM
3 | CC(C(=O)O)c1cccc(C(=O)c2ccccc2)c1 (centres undefined) [KETOPROFEN] |  | IC50: 0.5 µM
4 | CCCCC1C(=O)N(c2ccccc2)N(c2ccccc2)C1=O [PHENYLBUTAZONE] | inhibitor [+] | 
